This is an account of results in patent US6534048B1, “Topical clonidine preparation” (Curatek Pharmaceuticals Holding, Inc., priority 1999, dated 2003).

The subject of data set [1] is patients with postherpetic neuralgia. Particulars: cited from earlier work.

Regarding `Clc1cccc(Cl)c1NC1=NCCN1` [clonidine, N-(2,6-dichlorophenyl)-4,5-dihydro-1H-imidazol-2-amine], the side effects result in data set [1] (single oral 0.2 mg, at the time of peak clonidine levels) is “troublesome levels of sedation and dizziness”; the side effects entry (eight volunteers, 3 mg or 6 mg per day for 14 consecutive days) is “no side effects were observed”. For the same compound, the pain relief result in data set [1] (single oral doses of 0.2 mg, 40 patients) is given as “greater than that produced by doses of placebo or 120 mg codeine”. Moreover, under “topical daily doses of 3 mg and 6 mg clonidine”, the mean plasma concentrations result is reported as “not more than 0.2 nanograms/ml”.
